Experimental data from patent publication US20210380586A1, “2-INDOLYL IMIDAZO[4,5-D]PHENANTHROLINE POLYMORPHS AND COMPOSITIONS REGARDING THE SAME” (Aptose Biosciences Inc., priority 2020, published 2021).

Assay: Dynamic vapor sorption (DVS)
Assay type: physicochemical
Experimental: The mass uptake of 12% is equal to three equivalents of water; however, the material was not fully dry yet after drying at 0% RH for 24 hours. […] The water uptake and release is not stepwise, and no indication of other hydrates with different ratios of water is present.
Compound I-hydrate Form 2 was also analyzed by DVS (FIG. 14). Form 2 steadily gained 1.1 wt % from 5-95% RH. It underwent complete desorption with minor hysteresis.

Cc1[nH]c2ccc(F)cc2c1-c1nc2c3cccnc3c3ncccc3c2[nH]1 [Compound I-hydrate Form 2]
XRPD of the post-DVS solids (after sorption to 95% RH and desorption to 5% RH): No form change | DVS total mass uptake (continuous isothermal adsorption of water after drying at 0% RH for 24 hours (FIGS. 7 and 8)): 12% | DVS weight gain (from 5-95% RH): 1.1 wt % | stability in DVS de-sorption cycle (stable signal down to 10% RH): very stable
